Earlier results in patent US20230190754A1, “Therapeutic combinations for the treatment of Progressive Fibrosing interstitial lung diseases” (Boehringer Ingelheim International GmbH, priority 2021, published 2023).

Legend:
PDE4 subtypes, A-D = conditions: cited from earlier work
human lung fibroblasts = conditions: combination with nintedanib; cited from earlier work

[O-][S@+]1CCc2nc(N3CCC(c4ncc(Cl)cn4)CC3)nc(NC3(CO)CCC3)c21 [Comp. of form. III]
Preferential enzymatic inhibition among the PDE4 subtypes (in words) (PDE4 subtypes, A-D): inhibit preferentially the PDE4 B subtype
Effect on fibroblast proliferation (in words) (human lung fibroblasts): synergistic overadditive effect
